ChEMBL document CHEMBL1135457 (J Med Chem, 2002)

Key:
[1] = biological target: T1, Glucocorticoid receptor (Homo sapiens) (UniProt P04150)
T1 sequence (whole entry): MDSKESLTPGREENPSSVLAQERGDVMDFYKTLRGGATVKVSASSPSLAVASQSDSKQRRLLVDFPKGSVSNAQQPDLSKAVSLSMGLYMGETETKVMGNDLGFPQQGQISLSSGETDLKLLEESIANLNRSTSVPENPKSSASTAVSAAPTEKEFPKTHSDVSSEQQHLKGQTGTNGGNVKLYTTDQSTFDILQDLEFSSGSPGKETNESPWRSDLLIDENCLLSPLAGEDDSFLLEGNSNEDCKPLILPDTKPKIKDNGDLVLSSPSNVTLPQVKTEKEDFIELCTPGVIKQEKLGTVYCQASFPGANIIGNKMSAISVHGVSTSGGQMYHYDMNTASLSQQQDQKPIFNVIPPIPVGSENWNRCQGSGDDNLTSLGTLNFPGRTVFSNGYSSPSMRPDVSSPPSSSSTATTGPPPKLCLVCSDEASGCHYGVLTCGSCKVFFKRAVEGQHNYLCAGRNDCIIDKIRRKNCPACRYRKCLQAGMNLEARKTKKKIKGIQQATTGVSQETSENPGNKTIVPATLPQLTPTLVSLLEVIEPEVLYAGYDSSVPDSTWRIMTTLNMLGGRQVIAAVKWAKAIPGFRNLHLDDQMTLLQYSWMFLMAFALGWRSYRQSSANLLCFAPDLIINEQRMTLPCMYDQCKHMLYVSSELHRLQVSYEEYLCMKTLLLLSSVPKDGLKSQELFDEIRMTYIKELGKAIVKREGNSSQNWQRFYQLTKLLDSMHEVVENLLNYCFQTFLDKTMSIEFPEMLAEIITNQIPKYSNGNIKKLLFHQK
Description: (§1) Antagonist activity as displacement of 10 nM [3H]dexamethasone from human Glucocorticoid receptor

[2] = biological target: T2, Mineralocorticoid receptor (Homo sapiens) (UniProt P08235)
T2 sequence (whole entry): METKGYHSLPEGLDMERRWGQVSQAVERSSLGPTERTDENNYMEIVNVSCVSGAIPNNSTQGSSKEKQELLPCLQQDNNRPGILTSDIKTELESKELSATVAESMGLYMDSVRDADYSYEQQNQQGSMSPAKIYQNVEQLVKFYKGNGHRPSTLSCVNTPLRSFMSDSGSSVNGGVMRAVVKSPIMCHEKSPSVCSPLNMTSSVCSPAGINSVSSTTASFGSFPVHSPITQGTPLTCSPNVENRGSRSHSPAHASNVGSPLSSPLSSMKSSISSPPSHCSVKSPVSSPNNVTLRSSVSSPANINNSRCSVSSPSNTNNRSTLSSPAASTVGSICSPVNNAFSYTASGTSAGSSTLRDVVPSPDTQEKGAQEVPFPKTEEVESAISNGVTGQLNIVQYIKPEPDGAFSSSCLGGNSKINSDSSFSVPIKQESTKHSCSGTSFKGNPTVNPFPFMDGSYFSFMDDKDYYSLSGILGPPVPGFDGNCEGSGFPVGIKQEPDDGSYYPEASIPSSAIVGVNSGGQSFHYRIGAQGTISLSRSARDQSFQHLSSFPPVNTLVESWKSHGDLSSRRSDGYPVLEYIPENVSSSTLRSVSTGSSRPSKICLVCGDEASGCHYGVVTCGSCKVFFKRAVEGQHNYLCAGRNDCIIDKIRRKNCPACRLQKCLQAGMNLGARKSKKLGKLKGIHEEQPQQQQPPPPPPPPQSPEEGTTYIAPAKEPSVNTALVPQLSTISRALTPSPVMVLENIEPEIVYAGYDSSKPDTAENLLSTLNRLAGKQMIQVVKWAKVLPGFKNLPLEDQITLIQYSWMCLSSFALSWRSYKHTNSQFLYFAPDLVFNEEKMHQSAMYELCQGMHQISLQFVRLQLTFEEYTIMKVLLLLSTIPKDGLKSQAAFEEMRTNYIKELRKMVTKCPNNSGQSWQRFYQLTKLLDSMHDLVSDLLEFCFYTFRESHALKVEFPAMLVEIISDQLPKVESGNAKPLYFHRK

[3] = biological target: T3, Progesterone receptor (Homo sapiens) (UniProt P06401)
T3 sequence (whole entry): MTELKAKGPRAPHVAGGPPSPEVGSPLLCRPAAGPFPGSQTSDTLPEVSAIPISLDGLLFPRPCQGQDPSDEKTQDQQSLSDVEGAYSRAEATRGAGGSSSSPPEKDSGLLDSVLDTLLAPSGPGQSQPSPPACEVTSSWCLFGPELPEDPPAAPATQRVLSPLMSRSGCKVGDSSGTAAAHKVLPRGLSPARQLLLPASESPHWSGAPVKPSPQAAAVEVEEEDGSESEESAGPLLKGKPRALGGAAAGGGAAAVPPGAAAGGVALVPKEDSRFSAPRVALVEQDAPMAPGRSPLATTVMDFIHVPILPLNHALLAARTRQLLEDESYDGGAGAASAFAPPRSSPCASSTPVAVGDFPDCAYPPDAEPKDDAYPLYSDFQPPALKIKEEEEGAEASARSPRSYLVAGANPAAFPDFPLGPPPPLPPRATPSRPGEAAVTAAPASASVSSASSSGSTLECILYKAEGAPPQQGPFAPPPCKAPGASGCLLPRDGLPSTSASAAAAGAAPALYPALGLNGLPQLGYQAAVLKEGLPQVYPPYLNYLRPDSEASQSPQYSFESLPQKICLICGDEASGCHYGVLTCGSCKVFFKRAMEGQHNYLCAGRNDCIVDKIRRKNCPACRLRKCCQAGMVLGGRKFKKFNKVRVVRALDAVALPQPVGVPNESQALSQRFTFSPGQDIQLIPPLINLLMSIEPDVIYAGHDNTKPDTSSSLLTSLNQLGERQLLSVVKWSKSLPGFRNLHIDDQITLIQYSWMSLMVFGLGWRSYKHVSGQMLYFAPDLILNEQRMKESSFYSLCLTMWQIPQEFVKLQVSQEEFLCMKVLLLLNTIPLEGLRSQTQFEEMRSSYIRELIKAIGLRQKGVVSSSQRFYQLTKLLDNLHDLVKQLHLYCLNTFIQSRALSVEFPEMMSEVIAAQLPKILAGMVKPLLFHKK
Description: (§2) Antagonist activity against human Progesterone receptor by displacement of radioligand

Estrogen receptor beta [4] = biological target: T4, Estrogen receptor beta (Homo sapiens, UniProt Q92731); assay: Displacement of radioligand from human Estrogen receptor beta, percent inhibition at 10 uM
[5] = biological target: T1, Glucocorticoid receptor (Homo sapiens); remark: listed apart in the source
Description: as §1

[6] = biological target: T3, Progesterone receptor (Homo sapiens); remark: listed apart in the source
Description: as §2

[7] = biological target: T2, Mineralocorticoid receptor (Homo sapiens); remark: listed apart in the source
[8] = biological target: T5, Estrogen receptor (Homo sapiens) (UniProt P03372); assay: Displacement of radioligand from human Estrogen receptor alpha, percent inhibition at 10 uM
T5 sequence (whole entry): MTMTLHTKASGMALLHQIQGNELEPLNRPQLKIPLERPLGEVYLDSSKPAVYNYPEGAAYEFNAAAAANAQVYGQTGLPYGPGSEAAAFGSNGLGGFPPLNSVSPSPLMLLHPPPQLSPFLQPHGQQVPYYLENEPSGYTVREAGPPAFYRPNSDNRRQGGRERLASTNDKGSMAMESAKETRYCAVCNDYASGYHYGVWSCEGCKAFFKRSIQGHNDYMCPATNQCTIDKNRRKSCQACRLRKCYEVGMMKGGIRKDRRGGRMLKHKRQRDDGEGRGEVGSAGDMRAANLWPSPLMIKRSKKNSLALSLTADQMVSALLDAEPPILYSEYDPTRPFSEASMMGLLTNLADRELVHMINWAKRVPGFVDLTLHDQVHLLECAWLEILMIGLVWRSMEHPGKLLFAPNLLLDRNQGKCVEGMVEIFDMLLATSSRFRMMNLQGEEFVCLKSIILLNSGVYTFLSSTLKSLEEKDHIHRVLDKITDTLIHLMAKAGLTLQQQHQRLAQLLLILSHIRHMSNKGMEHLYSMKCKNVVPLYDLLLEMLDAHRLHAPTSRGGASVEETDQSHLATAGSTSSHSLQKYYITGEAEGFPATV

Progesterone receptor = biological target: T6, Progesterone receptor (Homo sapiens, UniProt P06401); assay: Displacement of radioligand from human Progesterone receptor
T6 sequence (P06401 whole entry): T3 sequence (whole entry)

Glucocorticoid receptor = biological target: T7, Glucocorticoid receptor (Homo sapiens, UniProt P04150); assay: Displacement of 10 nM [3H]dexamethasone from human Glucocorticoid receptor
T7 sequence (P04150 whole entry): T1 sequence (whole entry)

Androgen receptor = biological target: T8, Androgen receptor (Homo sapiens, UniProt P10275); assay: Displacement of [3H]DHT from human Androgen receptor
T8 sequence (P10275 whole entry): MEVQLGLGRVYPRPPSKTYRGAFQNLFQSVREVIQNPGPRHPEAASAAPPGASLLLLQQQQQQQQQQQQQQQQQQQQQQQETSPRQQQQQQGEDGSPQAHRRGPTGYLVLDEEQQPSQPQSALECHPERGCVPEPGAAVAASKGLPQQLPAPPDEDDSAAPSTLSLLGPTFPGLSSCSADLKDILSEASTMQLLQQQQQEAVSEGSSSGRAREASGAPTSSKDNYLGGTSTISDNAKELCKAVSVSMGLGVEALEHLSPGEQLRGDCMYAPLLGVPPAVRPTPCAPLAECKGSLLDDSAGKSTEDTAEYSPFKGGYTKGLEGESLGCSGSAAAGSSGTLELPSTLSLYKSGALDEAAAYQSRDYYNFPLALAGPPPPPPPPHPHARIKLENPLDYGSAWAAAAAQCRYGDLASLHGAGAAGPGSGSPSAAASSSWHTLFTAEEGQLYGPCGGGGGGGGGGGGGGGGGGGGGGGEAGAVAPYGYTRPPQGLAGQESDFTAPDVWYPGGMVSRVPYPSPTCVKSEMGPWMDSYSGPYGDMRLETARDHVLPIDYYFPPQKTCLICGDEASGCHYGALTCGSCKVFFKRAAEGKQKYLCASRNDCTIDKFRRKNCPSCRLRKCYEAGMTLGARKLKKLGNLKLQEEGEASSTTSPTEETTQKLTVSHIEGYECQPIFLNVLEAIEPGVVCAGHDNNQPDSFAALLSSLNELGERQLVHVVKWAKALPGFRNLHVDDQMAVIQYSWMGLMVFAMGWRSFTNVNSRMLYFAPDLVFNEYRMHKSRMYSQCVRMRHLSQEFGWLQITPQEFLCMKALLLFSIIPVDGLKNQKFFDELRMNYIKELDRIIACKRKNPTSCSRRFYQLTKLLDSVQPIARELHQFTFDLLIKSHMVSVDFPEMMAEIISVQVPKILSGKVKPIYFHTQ

[9] = biological target: T3, Progesterone receptor (Homo sapiens); conditions: 1 uM
Description: Antagonist activity against human Progesterone receptor as displacement of radioligand, percent inhibition at 1 uM

[10] = biological target: T2, Mineralocorticoid receptor (Homo sapiens); assay: Antagonist activity against human mineralocorticoid receptor as displacement of radioligand, percent […]; type: functional
Estrogen receptor beta [11] = biological target: T4, Estrogen receptor beta; assay: Displacement of radioligand from human ER beta
Estrogen receptor = biological target: T9, Estrogen receptor (Homo sapiens, UniProt P03372); assay: Displacement of radioligand from human Estrogen receptor alpha
T9 sequence (P03372 whole entry): T5 sequence (whole entry)

T4 sequence (Q92731 whole entry): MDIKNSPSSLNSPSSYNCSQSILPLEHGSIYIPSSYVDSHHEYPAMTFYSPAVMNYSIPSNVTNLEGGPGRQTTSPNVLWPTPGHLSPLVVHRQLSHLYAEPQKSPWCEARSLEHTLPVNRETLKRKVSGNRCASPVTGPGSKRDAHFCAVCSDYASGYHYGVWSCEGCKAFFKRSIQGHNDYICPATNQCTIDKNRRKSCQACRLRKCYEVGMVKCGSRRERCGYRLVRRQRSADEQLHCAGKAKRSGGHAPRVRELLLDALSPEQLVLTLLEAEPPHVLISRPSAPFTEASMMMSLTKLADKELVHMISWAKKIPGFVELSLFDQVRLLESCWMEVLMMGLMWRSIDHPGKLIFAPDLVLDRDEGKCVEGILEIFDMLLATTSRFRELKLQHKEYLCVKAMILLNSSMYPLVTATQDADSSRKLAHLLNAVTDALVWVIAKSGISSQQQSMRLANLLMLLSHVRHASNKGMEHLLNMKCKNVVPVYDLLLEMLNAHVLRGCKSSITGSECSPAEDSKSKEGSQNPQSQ

COc1ccc2c(c1)CCC1=CC(=O)CCC12Cc1ccccc1 (single isomer, unassigned; form 2) [listing 1 of 2 here]
Kif [1]: > 1000 nM
Kif [2]: > 1000 nM
Kif [3]: > 1000 nM

O=C1C=C2CCc3cc(O)ccc3C2(Cc2ccccc2)CC1 (single isomer, unassigned; form 1) [listing 1 of 2 here]
inhibition (Estrogen receptor beta [4]): 24%
Kif [5]: > 1000 nM
Kif [6]: > 1000 nM
Kif [7]: > 1000 nM
inhibition [8]: 36%

O=C1C=C2CCc3cc(O)ccc3C2(Cc2ccccc2)CC1 (single isomer, unassigned; form 2) [listing 1 of 2 here]
Ki (Progesterone receptor): > 10 µM
Ki (Glucocorticoid receptor): 0.157 µM
Ki (Androgen receptor): 0.18 µM

COc1ccc2c(c1)CCC1=CC(=O)CCC12Cc1ccccc1 (single isomer, unassigned; form 1) [listing 1 of 2 here]
Kif [1]: > 1000 nM
Kif [6]: > 1000 nM
Kif [7]: > 1000 nM
inhibition [8]: 27%

O=C1C=C2CCc3cc(O)ccc3C2(Cc2ccccc2)CC1 (single isomer, unassigned; form 2) [listing 2 of 2 here]
inhibition (Estrogen receptor beta [4]): 39%
Kif [1]: > 1000 nM
Kif [6]: > 1000 nM
Kif [7]: > 1000 nM
inhibition [8]: 70%

O=C1C=C2CCc3cc(O)ccc3C2(Cc2ccccc2)CC1 (single isomer, unassigned; form 1) [listing 2 of 2 here]
Ki (Progesterone receptor): > 10 µM
Ki (Glucocorticoid receptor): > 10 µM
Ki (Androgen receptor): > 10 µM

CC#C[C@]1(O)CC[C@H]2[C@@H]3CCC4=CC(=O)CCC4=C3[C@@H](c3ccc(N(C)C)cc3)C[C@@]21C
inhibition (Estrogen receptor beta [4]): 92%
inhibition [9]: 100%
Kif [1]: 2 nM
Kif [2]: < 10 nM
inhibition [10]: 69.7%
Kif [6]: 11.8 nM
inhibition [8]: 44%

COc1ccc2c(c1)CCC1=CC(=O)CCC12Cc1ccccc1 (single isomer, unassigned; form 2) [listing 2 of 2 here]
Ki (Estrogen receptor beta [11]): > 10 µM
Ki (Progesterone receptor): > 10 µM
Ki (Glucocorticoid receptor): > 10 µM
Ki (Estrogen receptor): > 10 µM
Ki (Androgen receptor): 0.054 µM

COc1ccc2c(c1)CCC1=CC(=O)CCC12Cc1ccccc1 (single isomer, unassigned; form 1) [listing 2 of 2 here]
Ki (Estrogen receptor beta [11]): > 10 µM
Ki (Progesterone receptor): > 10 µM
Ki (Glucocorticoid receptor): > 10 µM
Ki (Androgen receptor): 0.69 µM
